According to patent US12233081B2, “Hygromycin a compounds and methods of treating spirochete diseases” (priority 2018, dated 2025):
Values after ≈ are worked out from the molar mass of the structure shown.

Legend:
[1] = tested on: gut microbiome; test: gut microbiome 16S rRNA sequencing of stool of infected, treated mice; conditions: for Bacteroidaceae change in percent relative abundance / Streptococcaceae change in percent relative abundance: 50 mg/kg
[2] = tested on: Borrelia burgdorferi; test: microbroth dilution MIC; format: cell-based; conditions: Borreliella burgdorferi
Text: (§1) AH MIC testing of bacteria followed the Clinical and Laboratory Standards Institute (CLSI) guidelines for antimicrobial testing of aerobic, bacteria (Methods for Dilution Antimicrobial Susceptibility Tests for Bacteria that Grow Aerobically; Approved Standard—Tenth Edition, M07-A10; Performance Standards for Antimicrobial Susceptibility Testing; Twenty-fifth Informational Supplement, M100-S25), and guidelines for antimicrobial testing of anaerobic bacteria (Methods for Antimicrobial Susceptibility Testing of Anaerobic Bacteria, 8th Edition. M11-A8). Compounds of the invention can also be tested for activity as described herein.
(§2) Briefly, the microbroth dilution MIC method was used to quantitatively measure the in vitro antibacterial activity of hygromycin A against the given bacterial isolates shown in the table below. S. aureus, E. coli and P. aeruginosa were grown in cation-adjusted Mueller-Hinton broth, anaerobes were grown in Schaedler Anaerobe Media, Borrelia species were grown in BSK-II medium. Bacteria from liquid cultures were diluted into the assay plate to achieve 5×10^5 CFU/mL. Assays plates were prepared by 2-fold dilution of compound across the plate and included a positive growth control. […] Borrelia species were incubated in a microaerophilic chamber at 34° C. for 5-7 days and scored visually for medium color change from pink to yellow of the phenol red present in the medium. The lowest concentration of antibiotics that pre vented color change was interpreted, as the MIC.

[3] = tested on: Lactobacillus reuteri; test: microbroth dilution MIC; format: cell-based; conditions: Limosilactobacillus reuteri
Text: as §1, §2

[4] = tested on: Borrelia afzelii; test: microbroth dilution MIC; format: cell-based; conditions: Borreliella afzelii
Text: as §1, §2

[5] = tested on: Borrelia garinii; test: microbroth dilution MIC; format: cell-based; conditions: Borreliella garinii
Text: as §1, §2

[6] = tested on: Enterococcus faecalis; test: microbroth dilution MIC; format: cell-based
Text: as §1, §2

[7] = tested on: E. coli; test: microbroth dilution MIC; format: cell-based; conditions: Escherichia coli
Text: as §1, §2

[8] = tested on: Borrelia turcica; test: microbroth dilution MIC; format: cell-based
Text: as §1, §2

[9] = tested on: P. aeruginosa; test: microbroth dilution MIC; format: cell-based; conditions: Pseudomonas aeruginosa
Text: as §1, §2

[10] = tested on: Borrelia bavariensis; test: microbroth dilution MIC; format: cell-based; conditions: Borreliella bavariensis
Text: as §1, §2

[11] = tested on: Bifidobacterium longum; test: microbroth dilution MIC; format: cell-based
Text: as §1, §2

[12] = tested on: Bacteroides fragilis; test: microbroth dilution MIC; format: cell-based
Text: as §1, §2

[13] = tested on: S. aureus; test: microbroth dilution MIC; format: cell-based; conditions: Staphylococcus aureus
Text: as §1, §2

[14] = IP 50 mg/kg every 12 hours for 5 days
[15] = oral 50 mg/kg every 12 hours for 5 days
[16] = oral 50 mg/kg every 12 hours for 5 days, listed as Hyg

In the case of `CC(=O)[C@H]1O[C@@H](Oc2ccc(/C=C(\C)C(=O)N[C@@H]3[C@H](O)[C@@H](O)[C@H]4OCO[C@H]4[C@@H]3O)cc2O)[C@@H](O)[C@@H]1O` [Hygromycin A], the “Brucellaceae change in percent relative abundance” value [1, 14] is reported as 0.000%, the “Francisellaceae change in percent relative abundance” value [1, 14] is reported as −0.001% and the “Aerococcaceae change in percent relative abundance” value [1, 15] is reported as 0.000%. For the same molecule, the “Anaerolineaceae change in percent relative abundance” value [1, 15] was 0.000%, the “Anaeroplasmataceae change in percent relative abundance” value [1, 15] was −0.016% and the “Anaplasmataceae change in percent relative abundance” value [1, 15] was 0.000%. For the same molecule, the “Aspergillaceae change in percent relative abundance” value [1, 15] was 0.000%, the “Asteraceae change in percent relative abundance” value [1, 15] was 0.000% and the “Bacillaceae change in percent relative abundance” value [1, 15] was −0.009%. The “Bacillales change in percent relative abundance” value [1, 15] was −0.092%, the “Bifidobacteriaceae change in percent relative abundance” value [1, 15] was 0.013% and the “Brucellaceae change in percent relative abundance” value [1, 15] was 0.000%. The “Camobacteriaceae change in percent relative abundance” value [1, 15] was 0.005%, the “Chitinophagaceae change in percent relative abundance” value [1, 15] was 0.000% and the “Christensenellaceae change in percent relative abundance” value [1, 15] was 0.000%. For the same molecule, the “Clostridiaceae change in percent relative abundance” value [1, 15] was −5.257%, the “Clostridiales change in percent relative abundance” value [1, 15] was −0.174% and the “Clostridiales family xi. incertae sedis change in percent relative abundance” value [1, 15] was −0.032%. For the same molecule, the “Clostridiales family xiii. incertae sedis change in percent relative abundance” value [1, 15] was −0.007%, the “Coriobacteriaceae change in percent relative abundance” value [1, 15] was −0.038% and the “Corynebacteriaceae change in percent relative abundance” value [1, 15] was 0.000%. The “Cytophagaceae change in percent relative abundance” value [1, 15] was −0.001%, the “Deferribacteraceae change in percent relative abundance” value [1, 15] was −1.462% and the “Defluviitaleaceae change in percent relative abundance” value [1, 15] was −0.002%. The “Desulfobacteraceae change in percent relative abundance” value [1, 15] was −0.001%, the “Enterobacteriaceae change in percent relative abundance” value [1, 15] was −0.026% and the “Enterococcaceae change in percent relative abundance” value [1, 15] was 6.546%. For the same molecule, the “Erysipelotrichaceae change in percent relative abundance” value [1, 15] was 1.506%, the “Eubacteriaceae change in percent relative abundance” value [1, 15] was −6.405% and the “Fabaceae change in percent relative abundance” value [1, 15] was 0.000%. The “Flavobacteriaceae change in percent relative abundance” value [1, 15] was −0.001%, the “Francisellaceae change in percent relative abundance” value [1, 15] was 0.000% and the “Fusobacteriaceae change in percent relative abundance” value [1, 15] was 0.000%. For the same molecule, the “Gammaproteobacteria change in percent relative abundance” value [1, 15] was −0.025%, the “Gloeobacteraceae change in percent relative abundance” value [1, 15] was −0.013% and the “Gracilibacteraceae change in percent relative abundance” value [1, 15] was −0.072%. For the same molecule, the “Halomonadaceae change in percent relative abundance” value [1, 15] was 0.000%, the “Hylidae change in percent relative abundance” value [1, 15] was 0.000% and the “Kopriimonadaceae change in percent relative abundance” value [1, 15] was 0.000%. For the same molecule, the “Lachnospiraceae change in percent relative abundance” value [1, 15] was −8.372%, the “Lactobacillaceae change in percent relative abundance” value [1, 15] was 22.074% and the “Leuconostocaceae change in percent relative abundance” value [1, 15] was 0.000%. For the same molecule, the “Methylobacteriaceae change in percent relative abundance” value [1, 15] was 0.000%, the “Microbacteriaceae change in percent relative abundance” value [1, 15] was 0.000% and the “Mucoraceae change in percent relative abundance” value [1, 15] was 0.000%. The “Nostocaceae change in percent relative abundance” value [1, 15] was 0.000%, the “Onagraceae change in percent relative abundance” value [1, 15] was 0.000% and the “Oscillatoriales change in percent relative abundance” value [1, 15] was 0.001%. For the same molecule, the “Oscillospiraceae change in percent relative abundance” value [1, 15] was −0.009%, the “Paenibacillaceae change in percent relative abundance” value [1, 15] was −0.002% and the “Pasteurellaceae change in percent relative abundance” value [1, 15] was 0.000%. For the same molecule, the “Pelobacteraceae change in percent relative abundance” value [1, 15] was 0.000%, the “Peptococcaceae change in percent relative abundance” value [1, 15] was −0.835% and the “Peptoniphilaceae change in percent relative abundance” value [1, 15] was 0.000%. The “Peptostreptococcaceae change in percent relative abundance” value [1, 15] was −0.095%, the “Physalacriaceae change in percent relative abundance” value [1, 15] was 0.000% and the “Poaceae change in percent relative abundance” value [1, 15] was 0.007%. For the same molecule, the “Polyangiaceae change in percent relative abundance” value [1, 15] was 0.000%, the “Porphyromonadaceae change in percent relative abundance” value [1, 15] was −23.435% and the “Prevotellaceae change in percent relative abundance” value [1, 15] was −0.285%. For the same molecule, the “Pseudomonadaceae change in percent relative abundance” value [1, 15] was 0.000%, the “Rhizobiaceae change in percent relative abundance” value [1, 15] was 0.000% and the “Rhodobacteraceae change in percent relative abundance” value [1, 15] was 0.000%. The “Rikenellaceae change in percent relative abundance” value [1, 15] was −4.391%, the “Ruminococcaceae change in percent relative abundance” value [1, 15] was −1.494% and the “Sphingomonadaceae change in percent relative abundance” value [1, 15] was 0.000%. The “Spirochaetaceae change in percent relative abundance” value [1, 15] was −0.086%, the “Spiroplasmataceae change in percent relative abundance” value [1, 15] was −0.093% and the “Staphylococcaceae change in percent relative abundance” value [1, 15] was 0.001%. For the same molecule, the “Thermoanaerobacteraceae change in percent relative abundance” value [1, 15] was −0.010%, the “Veillonellaceae change in percent relative abundance” value [1, 15] was 0.002% and the “Verrucomicrobiaceae change in percent relative abundance” value [1, 15] was −0.017%. The “Xanthomonadaceae change in percent relative abundance” value [1, 15] was 0.000%, the “increases in Enterococcaceae or Enterobacteriaceae” value [1, 15] was “did not lead to increases” and the “mice that maintained Bacteroidaceae” value [1, 15] was 1/5. The “mice with decreased Bacteroidaceae” value [1, 15] was 3/5, the “mice with increased Bacteroidaceae” value [1, 15] was 1/5 and the “Bacteroidaceae change in percent relative abundance” value [1, 15] was −8.5%. The “Streptococcaceae change in percent relative abundance” value [1, 15] was 31.09%, the “Bacteroidaceae change in percent relative abundance” value [1, 16] was −8.462% and the “Streptococcaceae change in percent relative abundance” value [1, 16] was 31.098%. It also gave an MIC [2] of 0.12 mg/L (≈ 0.235 µM), an MIC [3] of 32 mg/L (≈ 62.6 µM) and an MIC [4] of 0.25 mg/L (≈ 0.489 µM). The MIC [5] was 0.25 mg/L (≈ 0.489 µM), the MIC [6] was 128 mg/L (≈ 250 µM) and the MIC [7] was 1000 mg/L (≈ 1960 µM). The MIC [8] was 0.25 mg/L (≈ 0.489 µM), the MIC [9] was > 1000 mg/L and the MIC [10] was 0.25 mg/L (≈ 0.489 µM). For the same molecule, the MIC [11] was 8 mg/L (≈ 15.6 µM), the MIC [12] was 128 mg/L (≈ 250 µM) and the MIC [13] was 32 mg/L (≈ 62.6 µM).
